Data published in ChEMBL document CHEMBL3885861, “Open TG-GATES”.

Species: Rattus norvegicus
Test: Open TG-GATES - Regimen: Daily Repeat
Assay type: toxicity, organism-based, Sprague-Dawley
Set-up: regimen Daily Repeat, gender Male, age 6 weeks
Conditions: in vivo, po, 0 mg/kg, route gavage, dose level Control; for APTT / Bas / Eos / Fbg / Hb / Ht / Lym / MCH / MCHC / MCV / Mono / Neu / PT / Plat / RBC / Ret / WBC: tissue Blood; for KIDNEY_L / KIDNEY_R / KIDNEY_TOTAL: tissue Kidney; for LIVER: tissue Liver; for A/G / ALP / ALT / AST / BUN / CRE / Ca / Cl / DBIL / GLC / IP / K / LDH / Na / PL / RALB / TBIL / TC / TG / TP / gamma-GTP: tissue Plasma

Work on `O=C(O)c1ccccc1Nc1ccccc1` [FENAMIC ACID] yielded a TERMINAL_BW (72 h, time 3 day) of 237 g, an APTT (72 h, time 3 day) of 16.2 s and a Bas (72 h, time 3 day) of 0.4%. For the same compound, the Eos (72 h, time 3 day) was 1.2%, the Fbg (72 h, time 3 day) was 270.2 mg/dL and the Hb (72 h, time 3 day) was 13.9 g/dL. The Ht (72 h, time 3 day) was 41.7%, the Lym (72 h, time 3 day) was 75.2% and the MCH (72 h, time 3 day) was 20.9 pg. It also gave an MCHC (72 h, time 3 day) of 33.3%, an MCV (72 h, time 3 day) of 62.7 fL and a Mono (72 h, time 3 day) of 2.6%. For the same compound, the Neu (72 h, time 3 day) was 20.6%, the PT (72 h, time 3 day) was 14.3 s and the Plat (72 h, time 3 day) was 121.2 x10_4/uL. It also gave an RBC (72 h, time 3 day) of 664.6 x10_4/ul, a Ret (72 h, time 3 day) of 6.5% and a WBC (72 h, time 3 day) of 95.3 x10_2/uL. It also gave a KIDNEY_L (72 h, time 3 day) of 1 g, a KIDNEY_R (72 h, time 3 day) of 1 g and a KIDNEY_TOTAL (72 h, time 3 day) of 2 g. For the same compound, the LIVER (72 h, time 3 day) was 10.9 g, the A/G (72 h, time 3 day) was 0.9 and the ALP (72 h, time 3 day) was 1663.4 IU/L. It also gave an ALT (72 h, time 3 day) of 35.4 IU/L, an AST (72 h, time 3 day) of 63.4 IU/L and a BUN (72 h, time 3 day) of 13.2 mg/dL. It also gave a CRE (72 h, time 3 day) of 0.2 mg/dL, a Ca (72 h, time 3 day) of 11.6 mg/dL and a Cl (72 h, time 3 day) of 106.8 meq/L. It also gave a DBIL (72 h, time 3 day) of 0.01 mg/dL, a GLC (72 h, time 3 day) of 185.8 mg/dL and an IP (72 h, time 3 day) of 7.2 mg/dL. The K (72 h, time 3 day) was 4.3 meq/L, the LDH (72 h, time 3 day) was 97.8 IU/L and the Na (72 h, time 3 day) was 143.8 meq/L. The PL (72 h, time 3 day) was 147.4 mg/dL, the RALB (72 h, time 3 day) was 2.7 g/dL and the TBIL (72 h, time 3 day) was 0.044 mg/dL. The TC (72 h, time 3 day) was 73.4 mg/dL, the TG (72 h, time 3 day) was 91.8 mg/dL and the TP (72 h, time 3 day) was 5.7 g/dL. It also gave a gamma-GTP (72 h, time 3 day) of 1.6 IU/L, a TERMINAL_BW ([…], time 7 day) of 271.7 g and a TERMINAL_BW ([…], time 14 day) of 334.6 g. It also gave a TERMINAL_BW ([…], time 28 day) of 425.8 g, an APTT ([…], time 7 day) of 16.2 s and a Bas ([…], time 7 day) of 0.8%. It also gave an Eos ([…], time 7 day) of 1%, a Fbg ([…], time 7 day) of 278.2 mg/dL and a Hb ([…], time 7 day) of 13.5 g/dL. The Ht ([…], time 7 day) was 40.3%, the Lym ([…], time 7 day) was 80.2% and the MCH ([…], time 7 day) was 20.5 pg. For the same compound, the MCHC ([…], time 7 day) was 33.5%, the MCV ([…], time 7 day) was 61 fL and the Mono ([…], time 7 day) was 2.2%. For the same compound, the Neu ([…], time 7 day) was 15.6%, the PT ([…], time 7 day) was 13.8 s and the Plat ([…], time 7 day) was 118.4 x10_4/uL. It also gave an RBC ([…], time 7 day) of 661.2 x10_4/ul, a Ret ([…], time 7 day) of 5.4% and a WBC ([…], time 7 day) of 84.5 x10_2/uL. The APTT ([…], time 14 day) was 16.3 s, the Bas ([…], time 14 day) was 0.4% and the Eos ([…], time 14 day) was 1%. The Fbg ([…], time 14 day) was 296.2 mg/dL, the Hb ([…], time 14 day) was 14.5 g/dL and the Ht ([…], time 14 day) was 42.3%. It also gave a Lym ([…], time 14 day) of 82.6%, an MCH ([…], time 14 day) of 20.2 pg and an MCHC ([…], time 14 day) of 34.2%. It also gave an MCV ([…], time 14 day) of 59.2 fL, a Mono ([…], time 14 day) of 1.8% and a Neu ([…], time 14 day) of 14.2%. The PT ([…], time 14 day) was 14.1 s, the Plat ([…], time 14 day) was 112.2 x10_4/uL and the RBC ([…], time 14 day) was 714.8 x10_4/ul. For the same compound, the Ret ([…], time 14 day) was 4%, the WBC ([…], time 14 day) was 73.8 x10_2/uL and the APTT ([…], time 28 day) was 15.8 s. It also gave a Bas ([…], time 28 day) of 0.2%, an Eos ([…], time 28 day) of 1% and a Fbg ([…], time 28 day) of 296 mg/dL. The Hb ([…], time 28 day) was 14.9 g/dL, the Ht ([…], time 28 day) was 43% and the Lym ([…], time 28 day) was 79.2%. It also gave an MCH ([…], time 28 day) of 19.4 pg, an MCHC ([…], time 28 day) of 34.6% and an MCV ([…], time 28 day) of 55.9 fL. It also gave a Mono ([…], time 28 day) of 1.6%, a Neu ([…], time 28 day) of 17.2% and a PT ([…], time 28 day) of 14.2 s. The Plat ([…], time 28 day) was 104.1 x10_4/uL, the RBC ([…], time 28 day) was 768.8 x10_4/ul and the Ret ([…], time 28 day) was 2.7%. The WBC ([…], time 28 day) was 92.6 x10_2/uL, the KIDNEY_L ([…], time 7 day) was 1.1 g and the KIDNEY_R ([…], time 7 day) was 1.1 g. It also gave a KIDNEY_TOTAL ([…], time 7 day) of 2.2 g, a KIDNEY_L ([…], time 14 day) of 1.3 g and a KIDNEY_R ([…], time 14 day) of 1.3 g. It also gave a KIDNEY_TOTAL ([…], time 14 day) of 2.5 g, a KIDNEY_L ([…], time 28 day) of 1.5 g and a KIDNEY_R ([…], time 28 day) of 1.5 g. For the same compound, the KIDNEY_TOTAL ([…], time 28 day) was 2.9 g, the LIVER ([…], time 7 day) was 12.7 g and the LIVER ([…], time 14 day) was 14.7 g. It also gave an LIVER ([…], time 28 day) of 17 g, an A/G ([…], time 7 day) of 0.9 and an ALP ([…], time 7 day) of 1493 IU/L. It also gave an ALT ([…], time 7 day) of 38 IU/L, an AST ([…], time 7 day) of 68.4 IU/L and a BUN ([…], time 7 day) of 14.2 mg/dL. The CRE ([…], time 7 day) was 0.2 mg/dL, the Ca ([…], time 7 day) was 11.4 mg/dL and the Cl ([…], time 7 day) was 106.2 meq/L. It also gave a DBIL ([…], time 7 day) of 0.01 mg/dL, a GLC ([…], time 7 day) of 190.4 mg/dL and an IP ([…], time 7 day) of 6.7 mg/dL. It also gave a K ([…], time 7 day) of 4.3 meq/L, an LDH ([…], time 7 day) of 105 IU/L and a Na ([…], time 7 day) of 143.2 meq/L. It also gave a PL ([…], time 7 day) of 148.4 mg/dL, an RALB ([…], time 7 day) of 2.6 g/dL and a TBIL ([…], time 7 day) of 0.03 mg/dL. It also gave a TC ([…], time 7 day) of 73 mg/dL, a TG ([…], time 7 day) of 119.4 mg/dL and a TP ([…], time 7 day) of 5.7 g/dL. The gamma-GTP ([…], time 7 day) was 1 IU/L, the A/G ([…], time 14 day) was 0.8 and the ALP ([…], time 14 day) was 1698.4 IU/L. It also gave an ALT ([…], time 14 day) of 36 IU/L, an AST ([…], time 14 day) of 63.2 IU/L and a BUN ([…], time 14 day) of 13.8 mg/dL. The CRE ([…], time 14 day) was 0.3 mg/dL, the Ca ([…], time 14 day) was 11.2 mg/dL and the Cl ([…], time 14 day) was 105.2 meq/L. The DBIL ([…], time 14 day) was 0.004 mg/dL, the GLC ([…], time 14 day) was 184 mg/dL and the IP ([…], time 14 day) was 7.1 mg/dL. The K ([…], time 14 day) was 4 meq/L, the LDH ([…], time 14 day) was 78.2 IU/L and the Na ([…], time 14 day) was 144 meq/L. For the same compound, the PL ([…], time 14 day) was 143.2 mg/dL, the RALB ([…], time 14 day) was 2.7 g/dL and the TBIL ([…], time 14 day) was 0.032 mg/dL. It also gave a TC ([…], time 14 day) of 68.6 mg/dL, a TG ([…], time 14 day) of 108.6 mg/dL and a TP ([…], time 14 day) of 5.9 g/dL. The gamma-GTP ([…], time 14 day) was 1 IU/L, the A/G ([…], time 28 day) was 0.8 and the ALP ([…], time 28 day) was 1171.8 IU/L. The ALT ([…], time 28 day) was 32.4 IU/L, the AST ([…], time 28 day) was 58.2 IU/L and the BUN ([…], time 28 day) was 14.8 mg/dL. It also gave a CRE ([…], time 28 day) of 0.3 mg/dL, a Ca ([…], time 28 day) of 11.1 mg/dL and a Cl ([…], time 28 day) of 105.2 meq/L. It also gave a DBIL ([…], time 28 day) of 0.006 mg/dL, a GLC ([…], time 28 day) of 192.8 mg/dL and an IP ([…], time 28 day) of 6.9 mg/dL. It also gave a K ([…], time 28 day) of 4 meq/L, an LDH ([…], time 28 day) of 104 IU/L and a Na ([…], time 28 day) of 144.4 meq/L. It also gave a PL ([…], time 28 day) of 133.8 mg/dL.
